The values that follow come from patent US20120006538A1, “METHOD FOR PRE-TREATMENT OF SUBTERRANEAN SITES ADJACENT TO WATER INJECTION WELLS” (E. I. DU PONT DE NEMOURS AND COMPANY, priority 2010, published 2012).

Data set [1] in a line: Amine concentration in brine #2 over amine-coated core sand, titration with 1N HCl (Example 2). To be noted: core sand in brine #2. In kind it is physicochemical. As for the experimental part:
Helium was used as the carrier gas.
38 milligrams (mg) of N N-Dimethyl-1-Dodecanamine (hereafter referred to as “the amine”) was added to 10.210 gr of Pentane. This solution was added to 10.1845 gr of specific sand layers (Oa and Ob) obtained from the Schrader Bluff formation of the Milne Point Unit of the Alaskan North slope. The oil content of the sand was first removed using a mixture of methanol and toluene (50/50, volume/volume) as solvent washes. The solvent mixture was subsequently evaporated off the core sand to produce clean, dry, flowable core sand. This sand was mixed with the amine and pentane solution to produce a slurry. This slurry was thoroughly mixed and the pentane was evaporated off leaving the amine on the sand (hereafter referred to as sand/amine mixture). 100 ml of brine #2 (Table 3) was added to the sand/amine mixture to create the sand/amine/brine mixture. […] The fact that the amine was not detected underlined its strong binding to the sand particles. […] The data underlines the remarkable efficiency of an acid at ionizing and removing the amine from the sand.

A short description of data set [2]: Amine concentration in brine #2 over amine-coated core sand, titration with 10% nitric acid (Example 4). To be noted: titration with 10 wt % nitric acid, core sand in brine #2. As for the experimental part:
Concentration of amines, in media and water, were analyzed by gas chromatography (GC). An Agilent Model 5890 (Agilent, Wilmington, Del.), GC equipped with a […] and a split/splitless injector, a DB-FFAP column (30 meter length×0.32 millimeter (mm) depth×0.25 micrometer particle size). […] The system was calibrated using a sample of N,N-Dimethyl-1-Dodecaneamine (Aldrich). Helium was used as the carrier gas. A temperature gradient of 50 degrees Celsius (° C.) to 250° C. at 30° C. increase per minute (min) was used. Retention times (in minutes, min) for various chemicals of interest included: N,N-Dimethyl-1-Dodecaneamine (8.08 min); N,N-Dimethyl-1-Tetradecaneamine (8.85 min); N,N-Dimethyl-1-Hexadecane-amine (9.90 min); N,N-Dimethyl-1-Octadecaneamine (10.26 min) and N-Methyl,N-Benzyl)-1-Tetradecaneamine (11.40 min).
The procedure outlined in Example 2 was used to produce the sand/amine mixture except that 519 mg of the amine, 10 gr of Pentane. and 60.062 gr of sand from the Oa and Ob layers were used. 29.065 gr of this sand/amine mixture was added to 100 ml of brine #2 (Table 3) to create the sand/amine/brine mixture. […] 0.1 ml of 10 weight percent (wt %) nitric acid in water was added to this solution, and the pH and the amine concentration were measured again.

The nature of data set [3]: Amine concentration in brine #2 over amine-coated core sand, titration with 10% acetic acid (Example 5). To be noted: titration with 10 wt % acetic acid, core sand in brine #2.

Some results are limits rather than exact numbers.

Turning to `CCCCCCCCCCCCN(C)C` [N N-Dimethyl-1-Dodecanamine], the “pH of complete ionization and solubilization of the amine in the water” value in data set [1] is under 6.0. Besides, the “pH of complete ionization and solubilization in the water of the amine” value in data set [2] and in data set [3] was under 6.7 each time.
